# Assay results taken from ChEMBL document CHEMBL4304779, “Treatment of Cancers by Inhibition of Isoprenylcysteine Carboxyl Methyltransferase” (ACS Med Chem Lett, 2019).
# pIC50: −log10 of the molar value.
# Target: Protein-S-isoprenylcysteine O-methyltransferase (Homo sapiens, UniProt O60725)
# Experiment: Inhibition of recombinant human ICMT expressed in baculovirus infected Sf9 insect cells using SAM as substrate preincubated for 30 mins followed by substrate addition and measured after 90 mins by MTase-Glo assay
# Chain of Protein-S-isoprenylcysteine O-methyltransferase (O60725 whole entry): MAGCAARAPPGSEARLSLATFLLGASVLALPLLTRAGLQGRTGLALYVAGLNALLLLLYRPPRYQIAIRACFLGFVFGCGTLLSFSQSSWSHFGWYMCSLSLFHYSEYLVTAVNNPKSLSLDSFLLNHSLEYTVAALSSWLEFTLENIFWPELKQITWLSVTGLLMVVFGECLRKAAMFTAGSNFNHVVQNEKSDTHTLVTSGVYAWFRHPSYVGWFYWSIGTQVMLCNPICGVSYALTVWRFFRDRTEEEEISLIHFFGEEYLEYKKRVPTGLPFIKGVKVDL
row,pIC50,SMILES
1,8.80,Cc1cc(C#N)ccc1O[C@@H](C)COc1cccc(-c2ccnn2C)c1
2,10.10,COc1cc(C#N)ccc1O[C@@H](C)COc1cccc(-n2ccnc2C)c1
